Experiment [1] concerns the target T1, Bcl-xL-Beclin 1 20-mer complex (Homo sapiens, UniProt Q07817).
T1 construct: made in house
The experiment can be described thus: FP competitive binding assay (disruption of Bcl-xL-20-mer complex). As to conditions: 50 nM 20-mer, 2 μM Bcl-xL. How it is done: Figure 1 FP-based HTS for Beclin 1 mimetics (A) Schematic presentation of the Beclin 1 protein and sequences of five synthetic peptides modified from Beclin 1 BH3 peptide. Diagram of human Beclin 1 protein with different domains is shown in the bottom. BH3 domain is necessary and sufficient for interaction with Bcl-2/Bcl-xL. Amino acids in red are the critical residues for the binding. (B) Five fluorescein-labeled Beclin 1 BH3 peptides were tested for their binding ability to Bcl-xL protein in FP assay. Fluorescein-labeled Bak BH3 peptide was used as a positive control. Bcl-xL protein was titrated to a solution of 50 nM peptides. (C) Competitive binding assay with positive controls, ABT-263 and (–)-gossypol ((–)G). […] (D–E) HTS was performed with ~50000 compounds from Prestwick, Microsource, CMLD and Chembridge libraries. The four libraries were divided into two groups and screened separately. Compounds activity (percent of inhibition) of first screen (D) and second screen (E) were shown with Z′ value indicated on top. Plate median + 3SD was used as a threshold to determine the initial hits.
Bcl-xL protein was immobilized on the sensor chip with 10000 RU.
All N′-fluorescein-labeled peptides were purchased from Kansas State University (Manhattan, KS). […] 16mer Bak ([…]) sequence was from published literature. Bcl-xL protein (25 kDa, > 90% pure based on SDS–PAGE) was expressed and purified in Protein Product Group, University of Kansas. FP assays were carried out as described in our previous publication with some modified. […] Then, fluorescein-labeled peptide was added to each well with a final concentration of 50 nM and incubated at room temperature for 30 min. Anisotropy measurements were taken at room temperature using a BioTek Synergy H4 plate reader (Biotek, Winooski, VT) following the protocol recommended by the manufacture. The Kd was estimated by nonlinear regression to a one-site binding model using GraphPad Prism 5.0 (GraphPad, San Diego, CA). […] Compound solvent DMSO only was used as a negative control in the competition assay. After 2 h incubation, the plate was read and polarization was calculated.

Experiment [2] concerns the target T2, Bcl-xL protein (Homo sapiens, UniProt Q07817).
T2 construct: made in house
The experiment can be described thus: Surface plasmon resonance assay, immobilized Bcl-xL. The format is binding. As to conditions: SPR; 10 μM compound; Bcl-xL immobilized 10000 RU. The procedure: The surface plasmon resonance experiments were performed using a Biacore 3000 (GE Healthcare Pittsburgh, PA) equipped with a research-grade CM5 sensor chip. The ligand (Bcl-xL) was immobilized using amine-coupling chemistry. The surfaces of flow cells on a Biacore sensor chip CM5 were activated for 7 min with a 1:1 mixture of 0.1 M NHS (N-hydroxysuccinimide) and 0.1 M EDC (3-(N,N-dimethylamino) propyl-N-ethylcarbodiimide) at a flow rate of 5 μL/min. The ligand (Bcl-xL) at a concentration of 180 μg/mL in 10 mM sodium acetate, pH 4.5, was immobilized at a density of about 10000 RU on flow cell 2; the ligand (SUMO-Bcl-2, 37.5 kDa, > 90% pure based on SDS–PAGE) at a concentration of 44 μg/ml in 10 mM sodium acetate, pH 4.5, was immobilized at a density of 10000 RU on flow cell 3; flow cell 1 was left blank to serve as a reference surface. All the surfaces were blocked with a 7 min injection of 1 M ethanolamine, pH 8.0.
For kinetic analysis, a concentration series of analyte were injected over the flow cells at a flow rate of 60 μL/min at 20 °C. The complex was allowed to associate and dissociate for 120 and 180 s, respectively. For binding studies, analyte (or test compound) was injected over the two flow cells in duplicate at indicated concentration at a flow rate of 60 μL/min at 20 °C. The running buffer consisted of 20 mM HEPES, 150 mM NaCl, 3 mM EDTA, 1 mM DTT, 0.05% P20, 5% DMSO, pH 7.4. The complex was allowed to associate and dissociate for 120 and 180 s, respectively. The buffer samples containing a range of 4–6% DMSO were injected at the beginning, used for solvent correction. The surfaces were regenerated between binding cycles with a 5 s injection of 5 mM NaOH for compounds and 10 mM Glycine pH 2.5 for 20-mer.
All measurements were taken with flow cell 1 as a reference (i.e. sensorgram depicts “2–1 correction”) and corrected for DMSO bulk differences via the calibration curves. To obtain kinetic rate constants (Ka and Kd), corrected response data were fit to a simple 1:1 interaction model using local fit (includes correction for mass transport limitations) available within Biaevaluation 3.1 software or Scrubber2 software. The equilibrium dissociation constant (KD) was determined by Kd/Ka.
On the technique in general: In SPR one partner is held on a chip, and binding of the other changes the refractive index at the surface.

Experiment [3] has as its system DU145. Description: MTT-based cytotoxicity assay, DU145. As to conditions: Homo sapiens, DU-145, averages of at least two independent experiments, read-out: Cytotoxicity in different cell lines (IC50, μM) DU145. From the text: (§1) Human prostate cancer cell lines PC-3 and DU145, were purchased from American Type Culture Collection (ATCC) and used within 50 passages. PC-3a is a derivative of PC-3 that is resistant to chemo/radiotherapy, established in our lab and confirmed by genotyping. All cells were maintained in DMEM (Mediatech, Manassas, VA) supplemented with 10% fetal bovine serum (FBS) (Sigma-Aldrich, St. Louis, MO), 1% Glutamine (Mediatech, Manassas, VA), 1% antibiotics (Mediatech, Manassas, VA). Compounds for primary FP-based HTS screening were from Prestwick, Microsource, University of Kansas Center of Excellence in Chemical Methodologies & Library Development (KU CMLD, Lawrence, KS), and Chembridge libraries. Compounds for MTT and SPR validation experiment were purchased from Microsource (Gaylordsville, CT) and Hit2lead Company (San Diego, CA). Acridine analogues, compound 1–6, were from our in-house library (provided by Specialized Chemistry Center, University of Kansas, Lawrence, KS); compound 7–17 were synthesized as described in supplementary information. (–)-Gossypol was isolated from racemic gossypol as we previously described. ABT-263 and DMSO were purchased from Sigma. MTT-based cytotoxicity assay and western blot analysis was carried out according to our previous publications. The primary antibodies used were LC3B (#2775) (Cell signaling Technology, Danvers, MA) and β-actin (A5441) (Sigma).
(Tetrazolium assays rely on reduction of a dye to a coloured formazan, in cell work by metabolically active cells.)

In experiment [4] the test system is PC-3a. The experiment can be described thus: MTT-based cytotoxicity assay, PC-3a. The conditions noted are these: Homo sapiens, averages of at least two independent experiments, read-out: Cytotoxicity in different cell lines (IC50, μM) PC-3a.
Source text: as §1

The subject of experiment [5] is PC-3. Description: MTT-based cytotoxicity assay, PC-3. The conditions noted are these: Homo sapiens, averages of at least two independent experiments, read-out: Cytotoxicity in different cell lines (IC50, μM) PC-3.
Source text: as §1

In experiment [6] the test system is DU145, PC-3a and PC-3 prostate cancer cell lines. The experiment can be described thus: MTT-based cytotoxicity assay, all three prostate cancer cell lines. Further details: species or system Human. The conditions noted are these: for IC50: Homo sapiens, DU-145, MTT, DU145, PC-3a and PC-3, read-out: cytotoxicity IC50, stated for all three cell lines together.
Source text: We also tested the cytotoxicity of the 17 compounds in human prostate cancer cell lines by MTT assay (Table 1).
as §1, with “PC-3a is a derivative of PC-3 that is resistant to chemo/radiotherapy, established in our lab and confirmed by genotyping.” left out, “Acridine analogues, compound 1–6, were from our in-house library (provided by Specialized Chemistry Center, University of Kansas, Lawrence, KS); compound 7–17 were synthesized as described in supplementary information.” left out

Results on 16 compounds are retold here after article PMC5584254, “Identification of novel small molecule Beclin 1 mimetics activating autophagy” (Oncotarget, 2017).

As a reminder, the IC50 is the midpoint of a concentration-inhibition curve.

Each structure is given as a SMILES string. Some results are limits rather than exact numbers.

T2 sequence (Q07817 whole entry): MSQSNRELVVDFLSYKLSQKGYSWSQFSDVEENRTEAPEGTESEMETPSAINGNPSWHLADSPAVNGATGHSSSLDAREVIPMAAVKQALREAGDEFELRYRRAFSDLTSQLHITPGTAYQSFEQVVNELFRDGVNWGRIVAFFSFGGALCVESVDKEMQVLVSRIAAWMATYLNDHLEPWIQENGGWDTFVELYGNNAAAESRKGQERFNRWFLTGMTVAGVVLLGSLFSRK
T1 sequence (Q07817 whole entry, one chain of several): as the sequence (Q07817 whole entry) above

On to `CC(=O)O.Cc1cc2c(C(C)C)c(O)c(O)c(C=O)c2c(O)c1-c1c(C)cc2c(C(C)C)c(O)c(O)c(C=O)c2c1O` [(–)-gossypol], for which, in experiment [1], the “competitive displacement of fluorescent 20-mer” value is “capable of freeing out fluorescent 20mer”.

`CC1(C)CCC(c2ccc(Cl)cc2)=C(CN2CCN(c3ccc(C(=O)NS(=O)(=O)c4ccc(N[C@H](CCN5CCOCC5)CSc5ccccc5)c(S(=O)(=O)C(F)(F)F)c4)cc3)CC2)C1` [ABT-263]: in experiment [1], the “competitive displacement of fluorescent 20-mer” value was “capable of freeing out fluorescent 20mer”.

As for `COc1ccc(CCN(C)c2c3ccccc3nc3ccccc23)cc1OC` [Compound 1], the “binding level to Bcl-xL protein in SPR” value in experiment [2] is reported as “almost no binding”. In addition, the IC50 is 8.15 ± 0.59 µM in experiment [3], 5.81 ± 1.16 µM in experiment [4] and 6.04 ± 0.68 µM in experiment [5].

In the case of `CN(CCc1ccc(O)c(O)c1)c1c2ccccc2nc2ccccc12` [Compound 2], the IC50 turned out to be 47 ± 7.39 µM in experiment [3], 29.2 ± 11.2 µM in experiment [4] and 38.7 ± 5.46 µM in experiment [5].

`COc1ccc(CCNc2ncnc3ccccc23)cc1OC` [Compound 3]: the “binding level to Bcl-xL protein in SPR” value in experiment [2] is on record as “almost no binding”. Moreover, the IC50 is above 100 µM in experiment [6], above 100 µM in experiment [3] and 82.7 ± 7.99 µM in experiment [4].

On to `COc1cc(Br)c(CCNc2c3ccccc3nc3ccccc23)cc1OC` [Compound 4], for which the figures for the IC50 in experiment [3], in experiment [4] and in experiment [5] were 6.33 ± 0.32 µM, 4.37 ± 0.68 µM and 4.43 ± 0.46 µM, respectively.

For `Nc1c2ccccc2nc2ccccc12` [Compound 5], the IC50 in experiment [6] was 0.5 to 5 µM; in experiment [3] it was 2.78 ± 0.79 µM; in experiment [4], 0.74 ± 0.45 µM; in experiment [5] it was 0.79 ± 0.07 µM. The “fold difference in IC50 value, PC-3 and PC-3a versus DU145” value in experiment [6] (higher cytotoxicity in PC-3 and PC-3a than in DU145) was 3–5 fold.

As to `O=C(CSc1nc(=O)c2ccccc2[nH]1)c1ccc(O)c(O)c1` [Compound 6], the “binding level to Bcl-xL protein in SPR” value in experiment [2] is recorded as “almost no binding”. For the same compound, the IC50 in experiment [6], in experiment [3], in experiment [4] and in experiment [5] was above 100 µM each time.

Take `COc1ccc2nc3cc(Cl)ccc3c(NCCOCCO)c2c1` [Compound 8]: the IC50 in experiment [3] was found to be 3.68 ± 0.55 µM; in experiment [4] it was 1.64 ± 0.78 µM; in experiment [5] it was 1.42 ± 0.73 µM.

Regarding `COc1ccc2nc3cc(Cl)ccc3c(Oc3ccccc3)c2c1` [Compound 10], the IC50 in experiment [3] came to 77.7 ± 24.2 µM; in experiment [4] it was 36.1 ± 8.23 µM; in experiment [5], 14.1 ± 0.71 µM.

Turning to `COc1ccc2nc3ccccc3c(-c3ccc([N+](=O)[O-])cc3)c2c1` [Compound 11], in experiment [2], the “binding level to Bcl-xL protein in SPR” value was “almost no binding”. Further, the IC50 in experiment [6], in experiment [3], in experiment [4] and in experiment [5] was above 100 µM in each case.

Turning to `COc1ccc2nc3ccccc3c(-c3ccncc3)c2c1` [Compound 12], the IC50 in experiment [3] was 45.4 ± 8.18 µM; in experiment [4], 16.4 ± 2.56 µM; in experiment [5] it was 21.6 ± 2.24 µM.

`COc1ccc2nc3cc(Cl)ccc3c(-c3ccncc3)c2c1` [Compound 13]: the IC50 in experiment [3] came to 57 ± 14.5 µM; in experiment [4], 53.9 ± 3.66 µM; in experiment [5], 52.4 ± 10.4 µM.

Consider `COc1ccc2nc3cc(Cl)ccc3c(-c3ccc(F)cc3)c2c1` [Compound 15], for which the “binding level to Bcl-xL protein in SPR” value in experiment [2] is “almost no binding”. Also, the IC50 in experiment [6], in experiment [3], in experiment [4] and in experiment [5] was above 100 µM in each case.

Take `COc1ccc2nc3cc(Cl)ccc3c(-c3ccc(NC(=O)OC(C)(C)C)cc3)c2c1` [Compound 16]: the IC50 in experiment [3] was found to be 36 ± 14 µM; in experiment [4], 38.7 ± 20.4 µM; in experiment [5], 45 ± 20.2 µM.

For `COc1ccc2nc3cc(Cl)ccc3c(-c3ccc(N)cc3)c2c1` [Compound 17], the IC50 in experiment [3] was 53 ± 14.7 µM; in experiment [4], above 100 µM; in experiment [5], 29.5 ± 28.4 µM.
